From US11180474B2 (BRISTOL-MYERS SQUIBB COMPANY, priority 2016, dated 2021)

Legend:
human TLR8 = biological target: T1, human TLR8 (Homo sapiens, UniProt Q9NR97); test: TLR8 inhibition reporter assay (HEK-Blue cells, SEAP reporter, R848 stimulation); type: cell-based; conditions: HEK-Blue cells overexpressing human TLR8, R848 15.9 μM
T1 construct: host or cells: HEK-Blue cells
T1 sequence (Q9NR97 27-1041): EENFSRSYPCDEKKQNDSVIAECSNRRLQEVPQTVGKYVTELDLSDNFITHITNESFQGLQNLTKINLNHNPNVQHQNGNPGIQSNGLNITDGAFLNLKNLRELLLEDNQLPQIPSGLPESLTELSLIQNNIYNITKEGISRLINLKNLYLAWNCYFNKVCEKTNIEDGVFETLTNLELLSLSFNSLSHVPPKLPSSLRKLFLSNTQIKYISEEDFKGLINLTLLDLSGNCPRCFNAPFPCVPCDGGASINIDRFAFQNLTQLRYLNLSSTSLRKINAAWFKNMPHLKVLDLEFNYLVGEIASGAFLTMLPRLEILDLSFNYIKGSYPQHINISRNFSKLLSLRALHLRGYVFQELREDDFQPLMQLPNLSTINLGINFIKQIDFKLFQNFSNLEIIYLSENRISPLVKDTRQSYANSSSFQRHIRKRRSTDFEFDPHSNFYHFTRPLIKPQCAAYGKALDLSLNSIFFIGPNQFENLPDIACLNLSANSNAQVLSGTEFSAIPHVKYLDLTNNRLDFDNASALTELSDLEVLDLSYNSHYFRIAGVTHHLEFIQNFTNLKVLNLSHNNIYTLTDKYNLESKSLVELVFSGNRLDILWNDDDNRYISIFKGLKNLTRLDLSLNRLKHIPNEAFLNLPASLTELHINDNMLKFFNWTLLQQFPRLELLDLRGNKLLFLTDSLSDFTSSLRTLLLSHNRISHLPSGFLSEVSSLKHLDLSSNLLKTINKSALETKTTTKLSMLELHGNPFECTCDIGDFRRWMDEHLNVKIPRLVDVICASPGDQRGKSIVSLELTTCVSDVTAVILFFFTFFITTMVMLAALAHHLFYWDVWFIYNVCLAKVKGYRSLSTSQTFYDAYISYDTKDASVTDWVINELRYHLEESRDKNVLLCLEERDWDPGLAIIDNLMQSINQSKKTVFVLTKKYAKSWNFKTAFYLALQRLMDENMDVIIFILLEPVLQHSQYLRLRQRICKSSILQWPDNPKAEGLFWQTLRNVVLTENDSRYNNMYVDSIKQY
How it was run: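 Cells (15000/well for TLR7, 20,000 for TLR8) were treated with compounds over 0.05 nM-50 μM final. After 22 h at 37° C, 5% CO2, SEAP was measured with HEK-Blue Detection reagent; percent inhibition was taken as reduction of agonist-plus-DMSO signal relative to a known inhibitor.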

human TLR9 = biological target: T2, human TLR9 (Homo sapiens, UniProt Q9NR96); test: TLR9 inhibition reporter assay (HEK-Blue cells, SEAP reporter, ODN2006 stimulation); type: cell-based; conditions: HEK-Blue cells overexpressing human TLR9, ODN2006 5 nM
T2 construct: host or cells: HEK-Blue cells
T2 sequence (Q9NR96 26-1032): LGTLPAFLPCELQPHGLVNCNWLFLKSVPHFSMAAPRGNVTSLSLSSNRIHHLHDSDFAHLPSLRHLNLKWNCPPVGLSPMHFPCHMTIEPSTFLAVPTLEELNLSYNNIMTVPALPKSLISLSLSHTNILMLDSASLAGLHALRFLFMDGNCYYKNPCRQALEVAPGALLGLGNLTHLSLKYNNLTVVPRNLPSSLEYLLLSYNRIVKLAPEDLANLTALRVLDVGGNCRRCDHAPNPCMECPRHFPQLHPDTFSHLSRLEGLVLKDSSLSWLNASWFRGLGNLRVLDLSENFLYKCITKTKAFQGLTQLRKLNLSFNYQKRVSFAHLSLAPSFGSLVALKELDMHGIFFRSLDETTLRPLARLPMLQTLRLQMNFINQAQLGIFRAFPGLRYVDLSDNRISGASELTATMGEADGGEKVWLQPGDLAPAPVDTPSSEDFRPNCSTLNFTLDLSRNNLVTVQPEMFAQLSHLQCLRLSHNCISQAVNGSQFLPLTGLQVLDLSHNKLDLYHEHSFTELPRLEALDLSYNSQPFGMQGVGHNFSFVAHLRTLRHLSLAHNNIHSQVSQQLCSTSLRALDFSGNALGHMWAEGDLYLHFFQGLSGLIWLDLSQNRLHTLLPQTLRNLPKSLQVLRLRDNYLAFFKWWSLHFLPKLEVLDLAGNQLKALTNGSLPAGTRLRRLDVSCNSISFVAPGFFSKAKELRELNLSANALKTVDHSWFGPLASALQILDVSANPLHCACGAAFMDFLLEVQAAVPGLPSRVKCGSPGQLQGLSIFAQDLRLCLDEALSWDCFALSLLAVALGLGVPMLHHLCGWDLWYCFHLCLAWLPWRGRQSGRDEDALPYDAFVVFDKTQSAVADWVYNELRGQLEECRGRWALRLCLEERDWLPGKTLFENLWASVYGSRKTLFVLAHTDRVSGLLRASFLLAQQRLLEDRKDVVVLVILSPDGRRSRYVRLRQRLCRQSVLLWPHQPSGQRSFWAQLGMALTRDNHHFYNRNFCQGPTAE
How it was run: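 Human TLR7/8/9 HEK-Blue reporter lines; dose range 0.05 nM–50 μM; 30 min RT preincubation; stimulus gardiquimod 7.5 μM / R848 15.9 μM / ODN2006 5 nM respectively; 22 h, 37 °C; SEAP detected colorimetrically.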

Structure (SMILES) | IC50 (human TLR8) [µM] | IC50 (human TLR9) [µM]
COc1ccc(-c2[nH]c3ccc(C4CCN(C(=O)CNC[C@H](O)CO)CC4)cc3c2C(C)C)cc1OC [Example 235, (S)-2-((2,3-dihydroxypropyl)amino)-1-(4-(2-(3,4-dimethoxyphenyl)-3-isopropyl-1H-indol-5-yl)piperidin-1-yl)ethan-1-one] | 0.039 | 0.774
COc1ccc(-c2[nH]c3ccc(C4CCN(C(=O)CNC5CCCC5O)CC4)cc3c2C(C)C)cc1OC (stereo not drawn) [Example 236, 1-(4-(2-(3,4-dimethoxyphenyl)-3-isopropyl-1H-indol-5-yl)piperidin-1-yl)-2-((2-hydroxycyclopentyl)amino)ethan-1-one] | 0.038 | 1.38
COc1ccc(-c2[nH]c3ccc(C4CCN(C(=O)CNCCC(C)O)CC4)cc3c2C(C)C)cc1OC (stereo not drawn) [Example 237, 1-(4-(2-(3,4-dimethoxyphenyl)-3-isopropyl-1H-indol-5-yl)piperidin-1-yl)-2-((3-hydroxybutyl)amino)ethan-1-one] | 0.022 | 1.16
COc1ccc(-c2[nH]c3ccc(C4CCN(C(=O)CN5CCC(O)CC5)CC4)cc3c2C(C)C)cc1OC [Example 238, 1-(4-(2-(3,4-dimethoxyphenyl)-3-isopropyl-1H-indol-5-yl)piperidin-1-yl)-2-(4-hydroxypiperidin-1-yl) ethan-1-one] | 0.005 | 1.42
COc1ccc(-c2[nH]c3ccc(C4CCN(C(=O)CN5CCCN(C)CC5)CC4)cc3c2C(C)C)cc1OC [Example 239, 1-(4-(2-(3,4-dimethoxyphenyl)-3-isopropyl-1H-indol-5-yl)piperidin-1-yl)-2-(4-methyl-1,4-diazepan-1-yl)ethan-1-one] | 0.017 | 0.516
COc1ccc(-c2[nH]c3ccc(C4CCN(C(=O)CN5CCN(C(C)C)CC5)CC4)cc3c2C(C)C)cc1OC [Example 240, 1-(4-(2-(3,4-dimethoxyphenyl)-3-isopropyl-1H-indol-5-yl)piperidin-1-yl)-2-(4-isopropylpiperazin-1-yl)ethan-1-one] | 0.034 | 1.39
COc1ccc(-c2[nH]c3ccc(C4CCN(C(=O)CN5CCC(N6CCN(C)CC6)CC5)CC4)cc3c2C(C)C)cc1OC [Example 241, 1-(4-(2-(3,4-dimethoxyphenyl)-3-isopropyl-1H-indol-5-yl)piperidin-1-yl)-2-(4-(4-methylpiperazin-1-yl)piperidin-1-yl)ethan-1-one] | 0.013 | 0.571
COc1ccc(-c2[nH]c3ccc(C4CCN(C(=O)CN(C)CCO)CC4)cc3c2C(C)C)cc1OC [Example 242, 1-(4-(2-(3,4-dimethoxyphenyl)-3-isopropyl-1H-indol-5-yl)piperidin-1-yl)-2-((2-hydroxyethyl)(methyl)amino)ethan-1-one] | 0.014 | 0.976
COc1ccc(-c2[nH]c3ccc(C4CCN(C(=O)CN5CCC(CO)CC5)CC4)cc3c2C(C)C)cc1OC [Example 243, 1-(4-(2-(3,4-dimethoxyphenyl)-3-isopropyl-1H-indol-5-yl)piperidin-1-yl)-2-(4-(hydroxymethyl)piperidin-1-yl)ethan-1-one] | 0.016 | 1.51
COc1ccc(-c2[nH]c3ccc(C4CCN(C(=O)CN5CCC(N(C)C)CC5)CC4)cc3c2C(C)C)cc1OC [Example 244, 1-(4-(2-(3,4-dimethoxyphenyl)-3-isopropyl-1H-indol-5-yl)piperidin-1-yl)-2-(4-(dimethylamino)piperidin-1-yl)ethan-1-one] | 0.016 | 0.381
COc1ccc(-c2[nH]c3ccc(C4CCN(C(=O)CNC5CCC(C(C)(C)O)CC5)CC4)cc3c2C(C)C)cc1OC (stereo not drawn) [Example 245, 1-(4-(2-(3,4-dimethoxyphenyl)-3-isopropyl-1H-indol-5-yl)piperidin-1-yl)-2-((4-(2-hydroxypropan-2-yl)cyclohexyl)amino)ethan-1-one] | 0.026 | 1.14
COc1ccc(-c2[nH]c3ccc(C4CCN(C(=O)CNC5CCC(O)CC5)CC4)cc3c2C(C)C)cc1OC (stereo not drawn) [Example 246, 1-(4-(2-(3,4-dimethoxyphenyl)-3-isopropyl-1H-indol-5-yl)piperidin-1-yl)-2-((4-hydroxycyclohexyl)amino)ethan-1-one] | 0.019 | 0.664
CCN(CC)C(=O)C1CCCN(CC(=O)N2CCC(c3ccc4[nH]c(-c5ccc(OC)c(OC)c5)c(C(C)C)c4c3)CC2)C1 (stereo not drawn) [Example 247, 1-(2-(4-(2-(3,4-dimethoxyphenyl)-3-isopropyl-1H-indol-5-yl)piperidin-1-yl)-2-oxoethyl)-N,N-diethylpiperidine-3-carboxamide] | 0.038 | 4.13
CCN(CC)C(=O)C1CCCN(CC(=O)N2CCC(c3ccc4[nH]c(-c5ccc(OC)c(OC)c5)c(C(C)C)c4c3)CC2)C1 (stereo not drawn) [Example 248, 1-(2-(4-(2-(3,4-dimethoxyphenyl)-3-isopropyl-1H-indol-5-yl)piperidin-1-yl)-2-oxoethyl)-N,N-diethylpiperidine-3-carboxamide] | 0.022 | 0.163
COc1ccc(-c2[nH]c3ccc(C4CCN(C(=O)CN5CCCC(CO)C5)CC4)cc3c2C(C)C)cc1OC (stereo not drawn) [Example 249, 1-(4-(2-(3,4-dimethoxyphenyl)-3-isopropyl-1H-indol-5-yl)piperidin-1-yl)-2-(3-(hydroxymethyl)piperidin-1-yl)ethan-1-one] | 0.017 | 0.78
COc1ccc(-c2[nH]c3ccc(C4CCN(C(=O)CNC[C@@H](F)C(C)(C)O)CC4)cc3c2C(C)C)cc1OC [Example 251, (R)-1-(4-(2-(3,4-dimethoxyphenyl)-3-isopropyl-1H-indol-5-yl)piperidin-1-yl)-2-((2-fluoro-3-hydroxy-3-methylbutyl)amino) ethan-1-one] | 0.75 | 15.3
COc1ccc(-c2[nH]c3ccc(C4CCN(C(=O)C[C@H](C)N)CC4)cc3c2C(C)C)cc1OC [Example 253, (S)-3-amino-1-(4-(2-(3,4-dimethoxyphenyl)-3-isopropyl-1H-indol-5-yl)piperidin-1-yl)butan-1-one] | 0.019 | 0.445
CNCC(=O)N1CCC(c2ccc3[nH]c(-c4ccc(OC)c(OC)c4)c(C(C)C)c3c2)CC1 [Example 256, 1-(4-(2-(3,4-dimethoxyphenyl)-3-isopropyl-1H-indol-5-yl)piperidin-1-yl)-2-(methylamino)ethan-1-one] | 0.035 | 2.32
